dTm data for 9 compounds are collected here from publication PMC12136037, “Type II kinase inhibitors that target Parkinson’s disease–associated LRRK2” (Science Advances, 2025).

Where two headings read alike, the source gives them in different places.

What all share (test): DSF 100 kinase selectivity screen;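 also: compound tested at 20 µM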
Format in all cases: binding

The target of experiment [1] is T1, ~100 representative kinases (Homo sapiens, UniProt O14733).
T1 construct: Recombinant protein kinase domains with a concentration of 2 μM
T1 sequence (O14733 1-419): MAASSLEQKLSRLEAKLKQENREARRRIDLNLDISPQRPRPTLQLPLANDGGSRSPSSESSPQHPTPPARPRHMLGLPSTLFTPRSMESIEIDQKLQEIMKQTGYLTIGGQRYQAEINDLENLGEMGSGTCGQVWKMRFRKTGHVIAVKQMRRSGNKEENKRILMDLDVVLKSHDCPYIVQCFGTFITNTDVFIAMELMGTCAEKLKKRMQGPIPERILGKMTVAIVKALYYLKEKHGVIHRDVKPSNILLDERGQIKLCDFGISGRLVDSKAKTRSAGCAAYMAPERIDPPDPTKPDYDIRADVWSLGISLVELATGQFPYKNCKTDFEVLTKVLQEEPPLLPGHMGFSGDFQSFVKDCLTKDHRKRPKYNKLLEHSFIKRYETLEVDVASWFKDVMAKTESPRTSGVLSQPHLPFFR
The settings on record: protein MAP2K7; average of three replicates. In a few lines:
(§1)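 Each kinase domain, at 2 μM, is mixed with 20 μM test compound and SYPRO Orange in Hepes (20 mM, pH 7.5) with 500 mM NaCl. Temperature is then raised at 3°C/min and fluorescence-monitored unfolding yields the melting temperature change, ΔTm in degrees Celsius.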

Experiment [2] addresses T2, ~100 representative kinases (Homo sapiens, UniProt P00519).
T2 construct: Recombinant protein kinase domains with a concentration of 2 μM
The settings on record: Protein ABL1; average of three replicates. In a few lines: as §1

Experiment [3] deals with T3, ~100 representative kinases (Homo sapiens, UniProt P15056).
T3 construct: Recombinant protein kinase domains with a concentration of 2 μM
The settings on record: Protein BRAF; average of three replicates. In outline:
as §1

The target of experiment [4] is T4, ~100 representative kinases (Homo sapiens, UniProt P22830).
T4 construct: Recombinant protein kinase domains with a concentration of 2 μM
T4 sequence (P22830 55-423): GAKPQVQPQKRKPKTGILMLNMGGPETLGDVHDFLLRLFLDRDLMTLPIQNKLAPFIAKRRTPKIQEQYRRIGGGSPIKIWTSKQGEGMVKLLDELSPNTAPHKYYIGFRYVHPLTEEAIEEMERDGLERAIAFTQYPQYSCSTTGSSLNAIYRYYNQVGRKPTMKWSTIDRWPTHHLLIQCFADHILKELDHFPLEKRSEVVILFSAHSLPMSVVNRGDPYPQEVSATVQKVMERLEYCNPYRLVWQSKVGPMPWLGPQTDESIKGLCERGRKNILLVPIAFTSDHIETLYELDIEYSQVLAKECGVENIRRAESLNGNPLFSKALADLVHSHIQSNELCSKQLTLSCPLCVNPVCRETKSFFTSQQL
The settings on record: protein FECH; average of three replicates. In outline:
as §1

Experiment [5] has as its target T5, ~100 representative kinases (Homo sapiens, UniProt P48730).
T5 construct: Recombinant protein kinase domains with a concentration of 2 μM
The settings on record: Protein CSNK1D; average of three replicates. In a few lines:
as §1

Experiment [6] concerns the target T6, ~100 representative kinases (Homo sapiens, UniProt P49841).
T6 construct: Recombinant protein kinase domains with a concentration of 2 μM
Particulars: protein GSK3B; average of three replicates. In outline: as §1

The target in experiment [7] is T7, ~100 representative kinases (Homo sapiens, UniProt P51955).
T7 construct: Recombinant protein kinase domains with a concentration of 2 μM
T7 sequence (P51955 1-445): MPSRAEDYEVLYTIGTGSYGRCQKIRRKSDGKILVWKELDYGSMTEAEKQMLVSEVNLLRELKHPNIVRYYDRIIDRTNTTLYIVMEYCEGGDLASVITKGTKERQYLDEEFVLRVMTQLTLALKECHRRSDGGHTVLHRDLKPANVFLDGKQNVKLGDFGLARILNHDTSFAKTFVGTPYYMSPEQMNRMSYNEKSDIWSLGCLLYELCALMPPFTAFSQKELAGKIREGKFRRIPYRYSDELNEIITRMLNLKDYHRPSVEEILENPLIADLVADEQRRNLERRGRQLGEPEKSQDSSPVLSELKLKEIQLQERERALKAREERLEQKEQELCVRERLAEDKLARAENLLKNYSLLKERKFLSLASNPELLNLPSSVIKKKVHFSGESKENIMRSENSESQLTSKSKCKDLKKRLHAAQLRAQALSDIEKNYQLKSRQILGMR
The settings on record: protein NEK2; average of three replicates. In outline:
as §1

Experiment [8] deals with T8, ~100 representative kinases (Homo sapiens, UniProt Q00536).
T8 construct: Recombinant protein kinase domains with a concentration of 2 μM
In a few lines: as §1

In experiment [9] the target is T9, ~100 representative kinases (Homo sapiens, UniProt Q13627).
T9 construct: Recombinant protein kinase domains with a concentration of 2 μM
Particulars: Protein DYRK1A; average of three replicates. In a few lines:
as §1

Experiment [10] has as its target T10, ~100 representative kinases (Homo sapiens, UniProt Q8TDX7).
T10 construct: Recombinant protein kinase domains with a concentration of 2 μM
The settings on record: protein NEK7; average of three replicates. In outline: as §1

Experiment [11] has as its target T11, ~100 representative kinases (Homo sapiens, UniProt Q96NX5).
T11 construct: Recombinant protein kinase domains with a concentration of 2 μM
Particulars: Protein CAMK1G; average of three replicates. In a few lines: as §1

For experiment [12], the target named is T12, ~100 representative kinases (Homo sapiens, UniProt Q96SB4).
T12 construct: Recombinant protein kinase domains with a concentration of 2 μM
The settings on record: Protein SRPK1; DSF; average of three replicates. In a few lines: as §1

Experiment [13] deals with T13, ~100 representative kinases (Homo sapiens, UniProt Q99986).
T13 construct: Recombinant protein kinase domains with a concentration of 2 μM
T13 sequence (Q99986 1-396): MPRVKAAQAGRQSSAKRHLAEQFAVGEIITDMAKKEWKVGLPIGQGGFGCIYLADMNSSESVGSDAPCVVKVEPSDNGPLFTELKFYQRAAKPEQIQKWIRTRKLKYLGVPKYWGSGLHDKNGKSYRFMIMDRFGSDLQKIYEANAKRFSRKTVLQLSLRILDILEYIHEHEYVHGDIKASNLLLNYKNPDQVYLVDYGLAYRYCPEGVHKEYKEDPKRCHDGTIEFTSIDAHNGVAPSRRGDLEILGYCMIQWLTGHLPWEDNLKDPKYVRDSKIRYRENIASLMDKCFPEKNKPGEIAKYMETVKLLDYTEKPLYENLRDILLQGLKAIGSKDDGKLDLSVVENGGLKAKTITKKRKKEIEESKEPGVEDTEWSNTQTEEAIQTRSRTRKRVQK
The settings on record: Protein VRK1; DSF; average of three replicates. In a few lines: as §1

Setting [14] is: protein PCTK1, average of three replicates.

T12 sequence (Q96SB4 whole entry, the tested form may be a part): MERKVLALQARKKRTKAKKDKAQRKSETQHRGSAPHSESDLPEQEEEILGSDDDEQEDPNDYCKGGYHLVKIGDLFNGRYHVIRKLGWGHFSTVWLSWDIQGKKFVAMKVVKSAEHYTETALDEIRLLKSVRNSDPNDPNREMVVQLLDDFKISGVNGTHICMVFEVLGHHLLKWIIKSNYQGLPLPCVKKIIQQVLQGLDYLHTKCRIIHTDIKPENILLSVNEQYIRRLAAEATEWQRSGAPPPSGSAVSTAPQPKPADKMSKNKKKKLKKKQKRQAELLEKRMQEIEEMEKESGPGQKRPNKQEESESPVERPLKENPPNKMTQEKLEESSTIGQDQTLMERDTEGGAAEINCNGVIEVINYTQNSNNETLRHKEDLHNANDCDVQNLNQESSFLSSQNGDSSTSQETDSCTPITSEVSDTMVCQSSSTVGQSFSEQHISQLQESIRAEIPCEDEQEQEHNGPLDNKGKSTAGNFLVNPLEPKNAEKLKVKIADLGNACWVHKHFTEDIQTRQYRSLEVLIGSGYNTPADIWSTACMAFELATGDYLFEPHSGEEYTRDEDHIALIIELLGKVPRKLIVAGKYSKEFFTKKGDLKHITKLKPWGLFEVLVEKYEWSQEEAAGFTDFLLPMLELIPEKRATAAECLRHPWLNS
T2 sequence (P00519 whole entry, the tested form may be a part): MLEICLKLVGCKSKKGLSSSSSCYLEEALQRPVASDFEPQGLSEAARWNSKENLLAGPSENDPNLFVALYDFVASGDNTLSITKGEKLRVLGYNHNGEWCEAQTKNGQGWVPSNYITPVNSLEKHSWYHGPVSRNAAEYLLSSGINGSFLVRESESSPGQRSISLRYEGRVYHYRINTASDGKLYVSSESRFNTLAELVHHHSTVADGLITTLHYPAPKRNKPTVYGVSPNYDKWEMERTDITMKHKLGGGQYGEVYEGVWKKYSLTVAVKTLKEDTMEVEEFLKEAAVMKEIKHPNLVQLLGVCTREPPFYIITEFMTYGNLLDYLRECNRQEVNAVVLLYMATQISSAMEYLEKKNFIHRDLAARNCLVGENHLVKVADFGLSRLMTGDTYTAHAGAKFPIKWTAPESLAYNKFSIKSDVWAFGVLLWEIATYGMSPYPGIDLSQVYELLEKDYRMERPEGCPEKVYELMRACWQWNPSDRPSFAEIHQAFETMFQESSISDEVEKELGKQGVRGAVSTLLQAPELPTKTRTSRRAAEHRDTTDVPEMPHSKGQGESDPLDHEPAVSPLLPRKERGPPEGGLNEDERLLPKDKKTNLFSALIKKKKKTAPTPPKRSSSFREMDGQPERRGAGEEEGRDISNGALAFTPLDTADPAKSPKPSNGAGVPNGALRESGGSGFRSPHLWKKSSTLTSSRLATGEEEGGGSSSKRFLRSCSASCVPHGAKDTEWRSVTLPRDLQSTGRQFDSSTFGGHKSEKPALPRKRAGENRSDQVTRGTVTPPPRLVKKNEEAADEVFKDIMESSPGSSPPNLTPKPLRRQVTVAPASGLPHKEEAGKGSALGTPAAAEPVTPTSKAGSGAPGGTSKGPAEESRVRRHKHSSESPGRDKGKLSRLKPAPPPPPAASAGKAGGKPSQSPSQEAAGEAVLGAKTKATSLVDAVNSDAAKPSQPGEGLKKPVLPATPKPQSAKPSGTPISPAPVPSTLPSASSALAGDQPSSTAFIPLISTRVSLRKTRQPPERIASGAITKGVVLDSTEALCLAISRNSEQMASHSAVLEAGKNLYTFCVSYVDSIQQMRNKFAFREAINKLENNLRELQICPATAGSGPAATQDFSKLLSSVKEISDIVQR
T5 sequence (P48730 whole entry, the tested form may be a part): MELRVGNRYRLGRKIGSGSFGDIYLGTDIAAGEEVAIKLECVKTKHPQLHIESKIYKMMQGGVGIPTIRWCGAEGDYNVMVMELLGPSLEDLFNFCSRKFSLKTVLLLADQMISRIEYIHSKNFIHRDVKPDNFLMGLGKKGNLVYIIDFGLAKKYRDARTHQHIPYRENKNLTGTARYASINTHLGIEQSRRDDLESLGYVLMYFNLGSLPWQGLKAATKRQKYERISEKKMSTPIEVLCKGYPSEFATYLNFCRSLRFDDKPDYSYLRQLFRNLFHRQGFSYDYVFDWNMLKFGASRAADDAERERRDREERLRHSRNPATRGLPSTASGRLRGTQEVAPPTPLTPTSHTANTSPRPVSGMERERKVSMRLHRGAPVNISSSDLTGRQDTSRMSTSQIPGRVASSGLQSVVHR
T3 sequence (P15056 whole entry, the tested form may be a part): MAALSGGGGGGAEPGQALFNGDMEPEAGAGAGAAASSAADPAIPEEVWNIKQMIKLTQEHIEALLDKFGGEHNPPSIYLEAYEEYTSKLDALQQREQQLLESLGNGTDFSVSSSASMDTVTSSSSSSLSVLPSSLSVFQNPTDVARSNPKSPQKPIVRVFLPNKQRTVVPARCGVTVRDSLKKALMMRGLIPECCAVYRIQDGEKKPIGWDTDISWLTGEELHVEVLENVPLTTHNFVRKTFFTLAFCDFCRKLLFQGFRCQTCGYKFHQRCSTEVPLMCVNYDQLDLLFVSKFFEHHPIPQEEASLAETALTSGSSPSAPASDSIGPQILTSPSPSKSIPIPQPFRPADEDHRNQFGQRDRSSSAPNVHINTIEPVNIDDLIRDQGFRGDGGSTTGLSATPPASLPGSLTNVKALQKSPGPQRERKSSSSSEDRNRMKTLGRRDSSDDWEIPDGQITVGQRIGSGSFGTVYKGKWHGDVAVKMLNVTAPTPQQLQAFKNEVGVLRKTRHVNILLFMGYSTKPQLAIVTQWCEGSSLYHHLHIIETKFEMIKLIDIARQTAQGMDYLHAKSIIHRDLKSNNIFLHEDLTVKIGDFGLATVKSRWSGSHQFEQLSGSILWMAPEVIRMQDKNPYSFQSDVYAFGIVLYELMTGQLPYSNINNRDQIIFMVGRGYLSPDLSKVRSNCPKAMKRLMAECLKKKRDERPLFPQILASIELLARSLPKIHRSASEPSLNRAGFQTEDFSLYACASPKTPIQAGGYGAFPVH
T10 sequence (Q8TDX7 whole entry, the tested form may be a part): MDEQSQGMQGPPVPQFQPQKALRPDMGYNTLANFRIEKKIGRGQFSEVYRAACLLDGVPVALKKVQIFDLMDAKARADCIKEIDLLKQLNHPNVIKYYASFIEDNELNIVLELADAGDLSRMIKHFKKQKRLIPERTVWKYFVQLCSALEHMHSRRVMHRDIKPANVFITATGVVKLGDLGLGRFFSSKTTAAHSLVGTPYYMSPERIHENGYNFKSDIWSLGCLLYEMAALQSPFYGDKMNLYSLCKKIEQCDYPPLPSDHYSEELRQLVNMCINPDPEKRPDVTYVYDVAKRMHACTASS
T11 sequence (Q96NX5 whole entry, the tested form may be a part): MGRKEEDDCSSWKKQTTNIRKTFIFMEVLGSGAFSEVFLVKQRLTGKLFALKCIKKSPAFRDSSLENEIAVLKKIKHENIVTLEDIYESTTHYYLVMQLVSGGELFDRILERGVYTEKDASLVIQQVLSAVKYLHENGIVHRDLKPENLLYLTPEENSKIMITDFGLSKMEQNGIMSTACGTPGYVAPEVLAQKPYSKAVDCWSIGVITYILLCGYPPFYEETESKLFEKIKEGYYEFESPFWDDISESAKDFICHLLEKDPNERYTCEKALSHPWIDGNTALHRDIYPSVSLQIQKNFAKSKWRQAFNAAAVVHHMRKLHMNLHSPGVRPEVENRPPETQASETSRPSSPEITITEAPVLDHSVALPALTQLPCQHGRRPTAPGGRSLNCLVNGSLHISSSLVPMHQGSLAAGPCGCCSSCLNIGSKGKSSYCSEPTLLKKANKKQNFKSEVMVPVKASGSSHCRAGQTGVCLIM
T6 sequence (P49841 whole entry, the tested form may be a part): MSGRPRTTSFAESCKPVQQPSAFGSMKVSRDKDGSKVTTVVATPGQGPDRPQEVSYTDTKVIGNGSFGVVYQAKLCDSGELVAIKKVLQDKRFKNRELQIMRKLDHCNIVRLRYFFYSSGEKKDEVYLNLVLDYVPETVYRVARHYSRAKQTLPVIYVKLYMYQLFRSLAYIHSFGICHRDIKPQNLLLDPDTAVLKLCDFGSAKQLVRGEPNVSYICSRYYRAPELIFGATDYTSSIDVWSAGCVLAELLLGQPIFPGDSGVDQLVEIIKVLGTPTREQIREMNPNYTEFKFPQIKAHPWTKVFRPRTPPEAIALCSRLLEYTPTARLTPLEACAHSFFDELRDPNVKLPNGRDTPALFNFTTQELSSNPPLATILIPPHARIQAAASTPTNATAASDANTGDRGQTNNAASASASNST
T8 sequence (Q00536 whole entry, the tested form may be a part): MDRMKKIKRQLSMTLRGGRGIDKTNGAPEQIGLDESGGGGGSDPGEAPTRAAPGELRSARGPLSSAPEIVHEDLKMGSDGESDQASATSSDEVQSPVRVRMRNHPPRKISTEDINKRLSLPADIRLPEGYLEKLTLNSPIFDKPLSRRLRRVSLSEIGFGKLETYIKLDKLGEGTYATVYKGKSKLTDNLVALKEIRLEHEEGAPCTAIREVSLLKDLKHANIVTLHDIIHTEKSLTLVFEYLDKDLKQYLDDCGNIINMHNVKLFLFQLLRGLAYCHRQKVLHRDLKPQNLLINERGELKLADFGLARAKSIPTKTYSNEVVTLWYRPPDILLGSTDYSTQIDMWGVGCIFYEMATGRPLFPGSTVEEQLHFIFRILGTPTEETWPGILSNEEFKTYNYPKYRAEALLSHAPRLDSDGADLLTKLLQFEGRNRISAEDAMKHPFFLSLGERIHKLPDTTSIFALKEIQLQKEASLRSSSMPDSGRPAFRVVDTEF

For the compound `Cc1ccc(C(=O)Nc2ccc(CN3CCN(C)CC3)c(C(F)(F)F)c2)cc1C#Cc1c[nH]c2ncnc(N3CCOCC3)c12` [Compound 1], the dTm in experiment [1] is recorded as 4.67 K; in [2], 7.59 K; in experiment [3], 35.22 K; in [4], 0.00 K; in [5], 0.0454 K; in experiment [6], 1.72 K. The dTm is 4.11 K in [7]; 1.60 K in [8] (setting [14]); -1.40 K in experiment [9]; 1.05 K in experiment [10]; 2.40 K in experiment [11]; 15.50 K in experiment [12]. Also, the dTm in experiment [13] is given as -0.0464 K.
As to `O=C(Nc1ccc(F)cc1)C1(C(=O)Nc2cccc(-c3c[nH]c4ncnc(N5CCOCC5)c34)c2)CC1` [Compound 2], the dTm in [1] is given as 4.21 K; in [2], 1.47 K; in experiment [3] it was 9.50 K; in experiment [4] it was -0.03 K; in experiment [5], 2.09 K; in experiment [6] it was 6.47 K. The dTm in experiment [7] is recorded as 0.52 K; in experiment [8] (setting [14]), 5.80 K; in [9] it was 4.73 K; in [10], -0.93 K; in [11], 1.77 K; in experiment [12], 10.56 K. The same compound displayed a dTm in experiment [13] of 0.75 K.
In the case of `O=C(Nc1cccc(-c2c[nH]c3ncnc(N4CCOCC4)c23)c1)c1cccn(-c2ccc(F)cc2)c1=O` [Compound 4], the dTm in experiment [1] is 5.76 K; in experiment [2], 2.49 K; in experiment [3], 8.03 K; in experiment [4], 2.76 K; in experiment [5], 5.34 K; in experiment [6], 5.10 K. For the same compound, the dTm was 0.47 K in experiment [7]; 7.66 K in experiment [8] (setting [14]); 2.17 K in experiment [9]; -0.10 K in [10]; 1.22 K in [11]; 9.86 K in [12]. In addition, the dTm in [13] is recorded as 1.12 K.
In the case of `Cc1cc(NC(=O)C2(C(=O)Nc3ccc(F)cc3)CC2)cc(-c2c[nH]c3ncnc(N4CCOCC4)c23)c1` [Compound 6], the dTm in experiment [1] is 1.34 K; in experiment [2], 1.02 K; in experiment [3], 12.36 K; in [4], -0.18 K; in experiment [5] it was 1.10 K; in experiment [6], 3.83 K. For the same compound, the dTm is 0.05 K in experiment [7]; 1.12 K in experiment [8] (setting [14]); -0.88 K in experiment [9]; 0.23 K in experiment [10]; 3.07 K in [11]; 7.72 K in experiment [12]. The compound further registered a dTm in [13] of 0.70 K.
On to `O=C(Nc1cccc(-c2c[nH]c3ncnc(N4CCOCC4)c23)c1)C1(C(=O)Nc2cccc3c2CCC3)CC1` [Compound 11], for which the dTm in [1] is reported as 4.41 K; in [2], 1.38 K; in experiment [3], 10.02 K; in [4] it was -8.36 K; in experiment [5], 1.21 K; in [6], 8.12 K. The dTm in [7] was -1.56 K; in [8] (setting [14]) it was 3.50 K; in experiment [9], 0.32 K; in experiment [10] it was 0.84 K; in experiment [11], 2.69 K; in [12], 6.49 K. Besides, in [13], the dTm came out at 0.56 K.
With `O=C(Nc1ccccc1)C1(C(=O)Nc2cccc(-c3c[nH]c4ncnc(N5CCOCC5)c34)c2)CC1` [Compound 12], the dTm in experiment [1] turned out to be 4.30 K; in experiment [2], 1.58 K; in [3], 6.85 K; in [4] it was 0.29 K; in experiment [5], 1.61 K; in experiment [6] it was 5.87 K. Also, the dTm in experiment [7] was 1.92 K; in experiment [8] (setting [14]), 5.02 K; in experiment [9], 4.34 K; in experiment [10], -0.19 K; in [11], 1.89 K; in [12], 7.66 K. This compound showed a dTm in experiment [13] of 0.69 K.
As to `O=C(Nc1ccc(Cl)cc1)C1(C(=O)Nc2cccc(-c3c[nH]c4ncnc(N5CCOCC5)c34)c2)CC1` [Compound 13], the dTm was 4.62 K in experiment [1]; 2.64 K in experiment [2]; 10.34 K in experiment [3]; -6.06 K in [4]; 2.99 K in [5]; 7.55 K in experiment [6]. Besides, the dTm is 2.76 K in experiment [7]; 9.13 K in experiment [8] (setting [14]); 8.77 K in experiment [9]; 1.06 K in [10]; 3.50 K in [11]; 12.04 K in experiment [12]. The same compound had a dTm in experiment [13] of 2.20 K.
With `COc1cc2c(Oc3ccc(NC(=O)C4(C(=O)Nc5ccc(F)cc5)CC4)cc3F)ccnc2cc1OCCCN1CCOCC1` [Foretinib, reference compound], the dTm in experiment [2] is reported as 13.44 K; in experiment [3] it was 6.96 K; in experiment [4], -11.10 K; in experiment [5], 0.91 K; in [6] it was 3.46 K; in experiment [7], 1.91 K. Further, the dTm in experiment [8] is reported as 4.52 K; in [9], 4.04 K; in experiment [10], -0.49 K; in [11], 3.09 K; in [12], 7.77 K; in experiment [13] it was 1.05 K.
`CNC(=O)c1cc(Oc2ccc(NC(=O)Nc3cc(C(C)(C)C)nn3-c3ccc4ncccc4c3)c(F)c2)ccn1` [Rebastinib, reference compound]: the dTm in [1] is 2.63 K; in [4] it was -5.98 K; in experiment [5] it was -1.01 K; in experiment [6] it was 11.89 K; in [7], 2.06 K; in experiment [8] (setting [14]), 13.62 K. For the same compound, the dTm in experiment [9] is 0.55 K; in [10] it was 3.06 K; in experiment [12] it was 14.66 K; in experiment [13], 0.52 K.
